Measured values taken from article PMC2075511, “Molecular evolution of type VI intermediate filament proteins” (BMC Evolutionary Biology, 2007).

Molecular target: T1, HR domain of chicken transitin (HR) (Gallus gallus, UniProt Q90831)
T1 construct: entire C-terminal heptad repeat (HR) domain, more than 50 LQVEHGD repeats; T7- or His-tag fusion protein, expressed in bacteria
Assay: malachite green phosphate release
Format: biochemical
Conditions: 10 mM MgCl2, pH 7.5, 25°C

T1 sequence (Q90831 323-1840 limits assumed): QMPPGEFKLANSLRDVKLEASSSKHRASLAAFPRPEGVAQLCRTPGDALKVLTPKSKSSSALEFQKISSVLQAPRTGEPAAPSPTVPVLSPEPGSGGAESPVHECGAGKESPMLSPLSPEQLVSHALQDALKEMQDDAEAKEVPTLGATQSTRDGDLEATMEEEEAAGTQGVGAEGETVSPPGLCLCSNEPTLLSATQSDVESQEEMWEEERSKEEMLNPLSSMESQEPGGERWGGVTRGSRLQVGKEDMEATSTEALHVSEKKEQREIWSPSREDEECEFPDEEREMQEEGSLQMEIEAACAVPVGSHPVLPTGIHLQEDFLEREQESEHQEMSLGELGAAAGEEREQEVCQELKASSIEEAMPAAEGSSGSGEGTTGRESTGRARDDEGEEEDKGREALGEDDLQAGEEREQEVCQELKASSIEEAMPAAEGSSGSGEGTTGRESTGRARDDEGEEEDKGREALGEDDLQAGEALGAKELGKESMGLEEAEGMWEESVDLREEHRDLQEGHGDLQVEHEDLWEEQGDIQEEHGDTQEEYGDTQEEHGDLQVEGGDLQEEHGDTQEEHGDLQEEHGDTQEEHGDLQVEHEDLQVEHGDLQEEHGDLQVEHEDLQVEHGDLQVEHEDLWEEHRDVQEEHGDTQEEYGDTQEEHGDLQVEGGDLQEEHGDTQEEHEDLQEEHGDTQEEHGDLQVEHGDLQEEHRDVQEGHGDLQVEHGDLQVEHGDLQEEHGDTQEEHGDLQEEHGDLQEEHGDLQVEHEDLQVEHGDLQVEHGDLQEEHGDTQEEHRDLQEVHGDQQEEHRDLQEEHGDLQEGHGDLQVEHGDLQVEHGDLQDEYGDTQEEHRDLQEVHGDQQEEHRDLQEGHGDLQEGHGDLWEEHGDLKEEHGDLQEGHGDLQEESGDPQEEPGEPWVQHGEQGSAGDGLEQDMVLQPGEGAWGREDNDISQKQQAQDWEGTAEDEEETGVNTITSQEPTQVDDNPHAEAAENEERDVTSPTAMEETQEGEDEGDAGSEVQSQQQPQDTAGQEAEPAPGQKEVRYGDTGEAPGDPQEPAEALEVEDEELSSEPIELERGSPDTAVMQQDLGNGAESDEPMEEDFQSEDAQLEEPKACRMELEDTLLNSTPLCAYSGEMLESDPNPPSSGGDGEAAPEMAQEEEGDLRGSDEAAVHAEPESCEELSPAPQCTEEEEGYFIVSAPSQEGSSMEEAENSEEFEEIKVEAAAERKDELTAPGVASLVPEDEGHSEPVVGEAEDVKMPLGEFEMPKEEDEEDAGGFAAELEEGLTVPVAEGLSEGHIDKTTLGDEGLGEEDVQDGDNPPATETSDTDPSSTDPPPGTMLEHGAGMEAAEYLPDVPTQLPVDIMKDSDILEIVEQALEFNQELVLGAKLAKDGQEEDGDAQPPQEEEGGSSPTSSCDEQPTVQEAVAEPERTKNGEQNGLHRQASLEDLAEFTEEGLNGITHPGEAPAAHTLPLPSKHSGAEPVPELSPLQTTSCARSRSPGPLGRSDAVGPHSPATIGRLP

Row | SMILES | malachite green phosphate release (1 mM GTP) | malachite green phosphate release (1 mM ATP)
1 | Nc1nc2c(ncn2[C@@H]2O[C@H](COP(=O)(O)OP(=O)(O)OP(=O)(O)O)[C@@H](O)[C@H]2O)c(=O)[nH]1 [GTP] | The HR domain of transitin has ATPase (Fig. 4a) as well as GTPase (Fig. 4b) activity | 
2 | Nc1ncnc2c1ncn2[C@@H]1O[C@H](COP(=O)(O)OP(=O)(O)OP(=O)(O)O)[C@@H](O)[C@H]1O [ATP] |  | The HR domain of transitin has ATPase (Fig. 4a) as well as GTPase (Fig. 4b) activity
